Results as given in patent publication US10167262B2, “Herbicidal substituted 3-arylpyrazoles” (FMC CORPORATION, priority 2014, dated 2019).
Where two headings read alike, the source gives them in different places.

Experiments:
Format in all cases: in vivo
[1] = test system: barnyardgrass (Echinochloa crus-galli); experiment: Test A pre-/postemergence greenhouse herbicide test, visual injury rating 0-100; details: Echinochloa crus-galli, 240 h, 1000 g ai/ha, read-out: Plant response rating (0 to 100 scale), Barnyardgrass
In short: (§1)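 Visual injury scored on a 0–100 scale versus untreated controls roughly 10 days after treatment in greenhouse. Treatments were preemergence soil sprays plus postemergence sprays to plants 2–10 cm tall at one- to two-leaf stage, in a surfactant-containing solvent formulation.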

[2] = test system: corn (Zea mays); experiment: as above; details: Zea mays, 240 h, 1000 g ai/ha, read-out: Plant response rating (0 to 100 scale), Corn
In short: as §1

[3] = test system: giant foxtail (Setaria faberii); experiment: as above; details: Setaria faberi, 240 h, 1000 g ai/ha, read-out: Plant response rating (0 to 100 scale), Foxtail, Giant
In short: as §1

[4] = test system: large (Lg) crabgrass (Digitaria sanguinalis); experiment: as above; details: Digitaria sanguinalis, 240 h, 1000 g ai/ha, read-out: Plant response rating (0 to 100 scale), Crabgrass, Large
In short: as §1

[5] = test system: morningglory (Ipomoea spp.); experiment: as above; details: Ipomoea, pre-emergence, 240 h; Preemergence, 1000 g ai/ha; read-out: Plant response rating (0 to 100 scale), Morningglory
In short: as §1

[6] = test system: pigweed (Amaranthus retroflexus); experiment: as above; details: Amaranthus retroflexus, 240 h, 1000 g ai/ha, read-out: Plant response rating (0 to 100 scale), Pigweed
In short: as §1

[7] = test system: velvetleaf (Abutilon theophrasti); experiment: as above; details: Abutilon theophrasti, 240 h, 1000 g ai/ha, read-out: Plant response rating (0 to 100 scale), Velvetleaf
In short: as §1

[8] = test system: wheat (Triticum aestivum); experiment: as above; details: Triticum aestivum, 240 h, 1000 g ai/ha, read-out: Plant response rating (0 to 100 scale), Wheat
In short: as §1

[9] = test system: blackgrass (Alopecurus myosuroides); experiment: Test C pre-/postemergence greenhouse test, plant response rating 0-100; details: Alopecurus myosuroides; for pest or weed control at 62 g/ha: 62 g ai/ha; for pest or weed control at 125 g/ha: 125 g ai/ha; for pest or weed control at 250 g/ha: 250 g ai/ha; for pest or weed control at 500 g/ha: 500 g ai/ha
In short: (§2)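 Visual rating vs controls after 13–15 d greenhouse; 0 = no effect, 100 = complete control. Pre: seeds in loam/sand, treated at planting. Post: seedlings 2–18 cm (1–4 leaf) in peat-based mix. Compounds in surfactant-containing non-phytotoxic solvent.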

[10] = test system: large (Lg) crabgrass (Digitaria sanguinalis); experiment: as above; details: Digitaria sanguinalis; for pest or weed control at 62 g/ha: 62 g ai/ha; for pest or weed control at 125 g/ha: 125 g ai/ha; for pest or weed control at 250 g/ha: 250 g ai/ha; for pest or weed control at 500 g/ha: 500 g ai/ha
In short: as §2

[11] = test system: morningglory (Ipomoea coccinea); experiment: as above; details: Ipomoea; for pest or weed control at 62 g/ha: 62 g ai/ha; for pest or weed control at 125 g/ha: 125 g ai/ha; for pest or weed control at 250 g/ha: 250 g ai/ha; for pest or weed control at 500 g/ha: 500 g ai/ha
In short: as §2

[12] = test system: ragweed (common ragweed, Ambrosia elatior); experiment: as above; details: Ambrosia artemisiifolia; for pest or weed control at 62 g/ha: 62 g ai/ha; for pest or weed control at 125 g/ha: 125 g ai/ha; for pest or weed control at 250 g/ha: 250 g ai/ha; for pest or weed control at 500 g/ha: 500 g ai/ha
In short: as §2

[13] = test system: velvetleaf (Abutilon theophrasti); experiment: as above; details: Abutilon theophrasti; for pest or weed control at 62 g/ha: 62 g ai/ha; for pest or weed control at 125 g/ha: 125 g ai/ha; for pest or weed control at 250 g/ha: 250 g ai/ha; for pest or weed control at 500 g/ha: 500 g ai/ha
In short: as §2

[14] = post-emergence, Postemergence, read-out: Plant response rating (0 to 100), Blackgrass
[15] = post-emergence, Postemergence, scale 0 to 100
[16] = pre-emergence, Preemergence, read-out: Plant response rating, Blackgrass
[17] = post-emergence, Postemergence, read-out: Plant response rating (0 to 100), Crabgrass, Large
[18] = pre-emergence, Preemergence, read-out: Plant response rating, Crabgrass, Large
[19] = post-emergence, Postemergence, read-out: Plant response rating (0 to 100), Morningglory
[20] = pre-emergence, Preemergence, read-out: Plant response rating, Morningglory
[21] = post-emergence, Postemergence, read-out: Plant response rating (0 to 100), Ragweed
[22] = pre-emergence, Preemergence, read-out: Plant response rating, Ragweed
[23] = post-emergence, Postemergence, read-out: Plant response rating (0 to 100), Velvetleaf
[24] = pre-emergence, Preemergence, read-out: Plant response rating, Velvetleaf

Compound: C#CCn1cc(C(=O)c2ccccc2)c(-c2cc(Cl)cc(Cl)c2)n1 [Compound 39, [3-(3,5-dichlorophenyl)-1-(2-propyn-1-yl)-1H-pyrazol-4-yl]phenylmethanone]
- pest or weed control at 1000 g/ha ([1]; post-emergence, Postemergence): 0%
- pest or weed control at 1000 g/ha ([1]; pre-emergence, Preemergence): 0%
- plant injury at 1000 g/ha ([2]; post-emergence, Postemergence): 0%
- plant injury at 1000 g/ha ([2]; pre-emergence, Preemergence): 0%
- pest or weed control at 1000 g/ha ([3]; post-emergence, Postemergence): 0%
- pest or weed control at 1000 g/ha ([3]; pre-emergence, Preemergence): 0%
- pest or weed control at 1000 g/ha ([4]; post-emergence, Postemergence): 0%
- pest or weed control at 1000 g/ha ([4]; pre-emergence, Preemergence): 0%
- pest or weed control at 1000 g/ha [5]: 0%
- pest or weed control at 1000 g/ha ([6]; post-emergence, Postemergence): 100%
- pest or weed control at 1000 g/ha ([6]; pre-emergence, Preemergence): 100%
- pest or weed control at 1000 g/ha ([7]; post-emergence, Postemergence): 100%
- pest or weed control at 1000 g/ha ([7]; pre-emergence, Preemergence): 100%
- plant injury at 1000 g/ha ([8]; post-emergence, Postemergence): 0%
- plant injury at 1000 g/ha ([8]; pre-emergence, Preemergence): 0%
- pest or weed control at 62 g/ha [9, 14]: 0%
- pest or weed control at 125 g/ha [9, 14]: 0%
- pest or weed control at 250 g/ha [9, 15]: 0%
- pest or weed control at 500 g/ha [9, 15]: 0%
- pest or weed control at 62 g/ha [9, 16]: 0%
- pest or weed control at 125 g/ha [9, 16]: 0%
- pest or weed control at 250 g/ha ([9]; pre-emergence, Preemergence): 0%
- pest or weed control at 500 g/ha ([9]; pre-emergence, Preemergence): 0%
- pest or weed control at 62 g/ha [10, 17]: 0%
- pest or weed control at 125 g/ha [10, 17]: 0%
- pest or weed control at 250 g/ha [10, 15]: 5%
- pest or weed control at 500 g/ha [10, 15]: 15%
- pest or weed control at 62 g/ha [10, 18]: 0%
- pest or weed control at 125 g/ha [10, 18]: 0%
- pest or weed control at 250 g/ha ([10]; pre-emergence, Preemergence): 0%
- pest or weed control at 500 g/ha ([10]; pre-emergence, Preemergence): 0%
- pest or weed control at 62 g/ha [11, 19]: 0%
- pest or weed control at 125 g/ha [11, 19]: 0%
- pest or weed control at 250 g/ha [11, 15]: 10%
- pest or weed control at 500 g/ha [11, 15]: 10%
- pest or weed control at 62 g/ha [11, 20]: 20%
- pest or weed control at 125 g/ha [11, 20]: 20%
- pest or weed control at 250 g/ha ([11]; pre-emergence, Preemergence): 20%
- pest or weed control at 500 g/ha ([11]; pre-emergence, Preemergence): 20%
- pest or weed control at 62 g/ha [12, 21]: 10%
- pest or weed control at 125 g/ha [12, 21]: 10%
- pest or weed control at 250 g/ha [12, 15]: 35%
- pest or weed control at 500 g/ha [12, 15]: 35%
- pest or weed control at 62 g/ha [12, 22]: 0%
- pest or weed control at 125 g/ha [12, 22]: 20%
- pest or weed control at 250 g/ha ([12]; pre-emergence, Preemergence): 45%
- pest or weed control at 500 g/ha ([12]; pre-emergence, Preemergence): 45%
- pest or weed control at 62 g/ha [13, 23]: 75%
- pest or weed control at 125 g/ha [13, 23]: 85%
- pest or weed control at 250 g/ha [13, 15]: 85%
- pest or weed control at 500 g/ha [13, 15]: 98%
- pest or weed control at 62 g/ha [13, 24]: 55%
- pest or weed control at 125 g/ha [13, 24]: 65%
- pest or weed control at 250 g/ha ([13]; pre-emergence, Preemergence): 65%
- pest or weed control at 500 g/ha ([13]; pre-emergence, Preemergence): 80%
